The subject of assay [1] is Candida albicans. The assay can be described thus: Effect of compound on Candida albicans sensitivity to Fluconazole: Minimum inhibitory concentration required to inhibit the growth of 90% of isolates after 48h. It is filed as functional.
Assay [2] concerns Candida albicans. The assay is described as follows: Effect of compound on Candida albicans sensitivity to Fluconazole: Minimum inhibitory concentration required to inhibit the growth of 90% of isolates after 24h. It is filed as functional.
The subject of assay [3] is Candida albicans. The assay can be described thus: microbe, parasite or virus in culture. It is filed as functional. Particulars: 48 h.
Description: Effect of compound on Candida albicans sensitivity to Fluconazole: Minimum inhibitory concentration required to inhibit the growth of 50% of isolates after 48h.
Assay [4] concerns Candida albicans. The assay is described as follows: Effect of compound on Candida albicans sensitivity to Fluconazole: Minimum inhibitory concentration required to inhibit the growth of 50% of isolates after 24h. The class given is functional.
The target in a further assay is T1, Histone deacetylase HD2 (Zea mays, UniProt Q94F81).
T1 sequence (Q94F81 whole entry): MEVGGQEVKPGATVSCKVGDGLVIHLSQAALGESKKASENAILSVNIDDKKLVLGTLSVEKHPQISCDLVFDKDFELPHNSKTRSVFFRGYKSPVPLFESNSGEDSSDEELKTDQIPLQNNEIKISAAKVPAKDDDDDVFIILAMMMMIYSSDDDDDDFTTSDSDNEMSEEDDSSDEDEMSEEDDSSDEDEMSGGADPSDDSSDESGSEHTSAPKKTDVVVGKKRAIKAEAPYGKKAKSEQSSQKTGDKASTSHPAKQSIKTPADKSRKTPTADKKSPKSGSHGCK
The assay can be described thus: Inhibition of maize HD2 (mean).

The target in the next assay is Histone deacetylase HD1B (Zea mays, UniProt Q9ZTP8). The assay can be described thus: Inhibition of maize HD1-B (mean).
Chain of Histone deacetylase HD1B (Q9ZTP8 whole entry): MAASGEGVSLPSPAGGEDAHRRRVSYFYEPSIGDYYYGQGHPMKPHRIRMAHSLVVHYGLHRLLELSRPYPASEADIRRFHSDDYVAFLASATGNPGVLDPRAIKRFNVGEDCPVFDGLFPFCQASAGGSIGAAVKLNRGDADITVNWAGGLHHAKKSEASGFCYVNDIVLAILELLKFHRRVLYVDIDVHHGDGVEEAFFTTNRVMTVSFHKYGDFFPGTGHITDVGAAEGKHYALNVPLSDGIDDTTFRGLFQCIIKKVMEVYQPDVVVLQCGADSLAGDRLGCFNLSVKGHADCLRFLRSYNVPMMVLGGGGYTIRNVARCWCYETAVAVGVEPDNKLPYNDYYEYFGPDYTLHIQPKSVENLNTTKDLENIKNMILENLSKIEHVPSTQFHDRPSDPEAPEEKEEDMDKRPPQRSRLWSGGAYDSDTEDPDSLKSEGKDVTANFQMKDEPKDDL
The next assay deals with Histone deacetylase 1 (Mus musculus, UniProt O09106). The assay is described as follows: Inhibition of mouse HDAC1 (mean).
Chain of Histone deacetylase 1 (O09106 whole entry): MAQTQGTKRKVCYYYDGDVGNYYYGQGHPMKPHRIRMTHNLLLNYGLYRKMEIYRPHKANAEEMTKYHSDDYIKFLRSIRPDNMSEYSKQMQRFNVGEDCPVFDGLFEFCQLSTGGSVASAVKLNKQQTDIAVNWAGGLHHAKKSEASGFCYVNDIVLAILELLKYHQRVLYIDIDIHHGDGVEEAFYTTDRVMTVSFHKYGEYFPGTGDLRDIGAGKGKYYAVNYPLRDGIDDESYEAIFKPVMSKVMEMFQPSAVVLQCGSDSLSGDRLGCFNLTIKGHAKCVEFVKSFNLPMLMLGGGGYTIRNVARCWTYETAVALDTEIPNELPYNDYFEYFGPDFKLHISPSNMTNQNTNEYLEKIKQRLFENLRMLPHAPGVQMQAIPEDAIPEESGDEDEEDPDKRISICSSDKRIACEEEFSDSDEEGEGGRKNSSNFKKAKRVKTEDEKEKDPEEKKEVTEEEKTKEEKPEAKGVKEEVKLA
Assay [5] deals with Histone deacetylase HD1-A (Zea mays). The assay can be described thus: Inhibition of maize HD1-A (mean).

The values that follow come from ChEMBL document CHEMBL1137599, “Discovery of uracil-based histone deacetylase inhibitors able to reduce acquired antifungal resistance and trailing growth in Candida albicans” (Bioorg Med Chem Lett, 2007).

Structures are written as SMILES. Values after ≈ are worked out from the molar mass of the structure shown.

As a reminder, the MIC90 is an inhibitory concentration at the 90% level, which refers to growth in some studies and to a panel of isolates in others. Read a high MIC90 as weaker potency. By IC50 is commonly meant the midpoint of a concentration-inhibition curve.

As to `O=C(CCCCSc1nc(-c2ccccc2)cc(=O)[nH]1)NO`, the MIC90 in the assay with Candida albicans [1] came to 12 µg/mL (≈ 37.6 µM); with Candida albicans [2], 4 µg/mL (≈ 12.5 µM). For the same compound, the MIC50 in the assay with Candida albicans [3] and in the assay with Candida albicans [4] was 0.5 µg/mL (≈ 1.57 µM) each time.
Turning to `O=C(CCCCSc1nc(-c2cccc(Cl)c2)cc(=O)[nH]1)NO`, the MIC90 against Candida albicans [1] stood at 8 µg/mL (≈ 22.6 µM); with Candida albicans [2], 3.42 µg/mL (≈ 9.67 µM). The IC50 turned out to be 0.006 µg/mL (≈ 0.017 µM) on Histone deacetylase HD2, 0.004 µg/mL (≈ 0.0113 µM) against Histone deacetylase HD1B and 0.013 µg/mL (≈ 0.0367 µM) at Histone deacetylase 1. Moreover, the MIC50 in the assay with Candida albicans [3] turned out to be 1 µg/mL (≈ 2.83 µM); against Candida albicans [4], 0.44 µg/mL (≈ 1.24 µM).
`O=C(CCCCSc1nc(-c2ccc(Cl)cc2)cc(=O)[nH]1)NO`: the results for the MIC90 against Candida albicans [1] and against Candida albicans [2] were 16 µg/mL (≈ 45.2 µM) and 2 µg/mL (≈ 5.65 µM), respectively. The half-maximal inhibitory concentration (IC50) against Histone deacetylase HD2 came to 0.006 µg/mL (≈ 0.017 µM); on Histone deacetylase HD1B it was 0.004 µg/mL (≈ 0.0113 µM); against Histone deacetylase 1 it was 0.018 µg/mL (≈ 0.0509 µM); in assay [5], 0.001 µg/mL (≈ 0.00283 µM). In addition, the results for the MIC50 against Candida albicans [3] and against Candida albicans [4] were 1 µg/mL (≈ 2.83 µM) and 0.5 µg/mL (≈ 1.41 µM), respectively.
As to `O=C(CCCCCSc1nc(Cc2ccccc2)cc(=O)[nH]1)NO`, the MIC90 is 12 µg/mL (≈ 34.5 µM) in the assay with Candida albicans [1] and 4 µg/mL (≈ 11.5 µM) in the assay with Candida albicans [2]. For the same compound, the MIC50 in the assay on Candida albicans [3] is 0.625 µg/mL (≈ 1.8 µM); in the assay on Candida albicans [4] it was 0.5 µg/mL (≈ 1.44 µM).
With `OC(Cn1cncn1)(Cn1cncn1)c1ccc(F)cc1F` [FLUCONAZOLE], the results for the MIC90 in the assay on Candida albicans [1] and against Candida albicans [2] were 11 µg/mL (≈ 35.9 µM) and 3.6 µg/mL (≈ 11.8 µM), respectively. Moreover, the MIC50 against Candida albicans [3] came to 2.5 µg/mL (≈ 8.16 µM); against Candida albicans [4], 1.45 µg/mL (≈ 4.73 µM).
For `O=C(CCCCCCC(=O)Nc1ccccc1)NO` [VORINOSTAT], the IC50 against Histone deacetylase HD2 is 0.013 µg/mL (≈ 0.0492 µM); at Histone deacetylase HD1B, 0.007 µg/mL (≈ 0.0265 µM).
